In patent US8852657B2, “Chromones as therapeutic agents” (Unigen, Inc., priority 2007, dated 2014):
Entries after “also recorded” stand apart in the source; their conditions may differ.

What was measured:
[1] = test system: adiponectin secreted into the media by differentiated 3T3-L1 cells; experiment: Adiponectin ELISA assay, improved protocol (differentiated 2 days, treated 48 hours); assay type: cell-based, mouse; conditions: for activity in the adiponectin assay: sub-fractions and isolated compounds of P0017-OE
Protocol: (§1) 3T3-L1, an embryonic mouse cell line (American Type Culture Collection, Manassas, Va.), is a sub-strain of the 3T3 swiss albino line that can differentiate from a pre-adipose to adipose state. These preadipocytes were cultured in Dulbecco's modified Eagle medium (DMEM) containing 10% fetal bovine serum (FBS) (Mediatech, Inc., Herndon, Va.).
(§2) To establish a differentiation protocol, the 3T3-L1 cells were plated into 96-well plates and cultured overnight to confluence. The confluent cells were induced to differentiate 2 days post-confluence. The induction was conducted with 0.5 mM isobutylmethylzanthine, 1.0 μM dexamethasone and 1.7 μM insulin (Sigma-Aldrich, St. Louis, Mo.) supplemented into culture media. On the 7th day the adipocytes were treated with the control compounds or plant extracts for 24 hours. All controls and plant extracts were solublized in DMSO and added to the culture media at 1% of the total volume. Cell media was collected to measure the levels of adiponectin and assayed by enzyme-linked immunosorbent assay (ELISA) according to the manufacturer's protocol (R&D Systems, Minneapolis, Minn.). The assay sensitivity ranged from 31.25-2000 pg/mL. The positive controls were tested in a range from 0.01 to 300 μM (FIG. 1).
Due to the poor signal to background ratio of the assay (less than 2), the previously mentioned protocol needed to be improved. Adipocytes were plated and differentiated as previously described. The cells were differentiated in the differentiation medium for 48 hours either with or without the addition of insulin. Then the cells were treated with the control compounds or plant extracts for only 48 hours post-differentiation. All other parameters were the same as previously mentioned. The indomethacin (FIG. 1) and troglitazone (data not shown) controls were tested at 10-100 μM and 3-30 μM respectively. The greatest increase in the level of adiponectin was 52-fold above the signal of baseline which was achieved by indomethacin treatment at 100 μM, while the lowest increase was 7-fold with indomethacin at 10 μM (FIG. 1B).

[2] = test system: adiponectin secreted into the media by differentiated 3T3-L1 cells; experiment: Adiponectin ELISA assay, previously published protocol (differentiated 7 days, treated 24 hours); assay type: cell-based, mouse; conditions: for fold increase in adiponectin level: 1 μM, greatest fold increase, differentiated 7 days, treated 24 hours
Protocol: as §1, §2

[3] = test system: C57BL/6J mice fed high fat diet; experiment: Plasma insulin level (ELISA), high-fat diet induced model; assay type: in vivo, mouse; conditions: day 14 of treatment after 8 weeks high-fat diet; P<0.05; GW1929 5 mg/kg, UP394 and UP396 100 mg/kg
Text: A high-fat diet induced animal model was developed and used for evaluation of potential therapeutic effects of chromone extracts. The C57BL/6J is a clinically relevant animal model that can be used in studies on metabolic disorders, pathophysiology of impaired glucose tolerance and for development of novel therapeutic agents (Ahren et al. (2004) Diabetes 53 (Supplement 3):S215-S219; Laakso et al. (2004) Diabetes Care 27:2253-2259; Kahn et al. (2004) Diabetes 53:3274-3285; Scheurink et al. (1998) European J Endo. 139:461-467; Yuan et al. (2002) Diabetes 51:1851-1858; Reitman et al. (2005) Endocrinology 145:3258-3264; Vlassara et al. (2005) Diabetes 54:2314-2319; Cawthome et al. (2002) Molecular and Cellular Proteomics 1:509-516). Methodology of model induction was first explained by Surwit et al. in 1988 (Diabetes, 37:1163-1167). In brief, impaired glucose tolerance and metabolic disorder like symptoms were inflicted successfully in C57BL/6J mice when fed with high fat diets for 8 weeks. Male C57BL/6J mice were purchased from Jackson Laboratories (Bar Harbor, Me.) at age of 6 weeks. One week after acclimation period, animals were divided into groups (n=5 or 6) and provided with high fat (45% kcal) rodent pellet (Research diets, Inc., New Brunswick, N.J.) and water ad libitum for 12 weeks except at times of glucose and insulin tolerance tests at which feed was withheld for three hours. Animals were maintained in a temperature controlled room (22.2° C.) on a 12 hour light-dark cycle. Blood glucose, cholesterol, and triglyceride were monitored every week for 12 weeks as described previously. Body weight measurement was taken once a week for 12 weeks.
Once induction of the metabolic disorders was confirmed by weekly monitoring of selected parameters (glucose, triglyceride and cholesterol) i.e. on the 8th week, daily intraperitoneal treatment was initiated and maintained for 4 weeks. […]
The plasma insulin levels were measured with an ELISA kit for insulin (Crystal Chem—Chicago, Ill.). […]

[4] = test system: C57BL/6J mice fed high fat diet; experiment: Intraperitoneal glucose tolerance test, high-fat diet induced model (UP394/UP396); assay type: in vivo, mouse; conditions: day 18; times 60, 90 and 120 minutes; p<0.05; GW1929 5 mg/kg, UP396 100 mg/kg intraperitoneally
Text: A high-fat diet induced animal model was developed and used for evaluation of potential therapeutic effects of chromone extracts. The C57BL/6J is a clinically relevant animal model that can be used in studies on metabolic disorders, pathophysiology of impaired glucose tolerance and for development of novel therapeutic agents (Ahren et al. (2004) Diabetes 53 (Supplement 3):S215-S219; Laakso et al. (2004) Diabetes Care 27:2253-2259; Kahn et al. (2004) Diabetes 53:3274-3285; Scheurink et al. (1998) European J Endo. 139:461-467; Yuan et al. (2002) Diabetes 51:1851-1858; Reitman et al. (2005) Endocrinology 145:3258-3264; Vlassara et al. (2005) Diabetes 54:2314-2319; Cawthome et al. (2002) Molecular and Cellular Proteomics 1:509-516). Methodology of model induction was first explained by Surwit et al. in 1988 (Diabetes, 37:1163-1167). […] Blood glucose, cholesterol, and triglyceride were monitored every week for 12 weeks as described previously. […]
An intraperitoneal glucose tolerance test was conducted using the C57BL/6J mice as described in Example 12 at a dose of 2 g/kg on day 18 of treatment with intraperitoneal administration of GW1929 (5 mg/kg), UP394 (100 mg/kg), UP396 (100 mg/kg) and vehicle. […] Blood glucose levels were measured at time 0, 30, 60, 90, and 120 minutes. […]

[5] = test system: tyrosinase; conditions: in vitro; Yagi et al. (1987); cited from earlier work
[6] = test system: human intestinal bacteria; conditions: cited from earlier work

| Compound | fold increase in adiponectin level ([1]; 30 μM, treated 48 hours) [fold] | fold increase in adiponectin level [2] [fold] | plasma insulin levels compared to vehicle [3] | activity in the adiponectin assay [1] | also measured |
| --- | --- | --- | --- | --- | --- |
| Cc1c(C)c2c(c(C)c1O)CCC(C)(COc1ccc(CC3SC(=O)NC3=O)cc1)O2 (stereo not drawn) [troglitazone] | 49 | 1.7 | – | – | fold increase in adiponectin level ([1]; 3 μM, treated 48 hours): 24 fold |
| Cc1cc(O)c(C2OC(O)C(O)C(O)C2CO)c2oc(CC(C)O)cc(=O)c12 (stereo not drawn) [UP396, aloesinol] | 3.2 | – | – | – | – |
| COc1ccc2c(c1)c(CC(=O)O)c(C)n2C(=O)c1ccc(Cl)cc1 [indomethacin] | – | 1.6 | – | – | fold increase in adiponectin level ([1]; 10 μM, differentiated 2 days, treated 2 days): 7 fold; fold increase in adiponectin level ([1]; 100 μM, differentiated 2 days, treated 2 days): 52 fold; signal to background ratio of the assay ([2]; best ratio, indomethacin at concentrations between 0.1-300 μM, published experimental conditions): 1.6 |
| aloesinol [UP396] | – | – | decreased the insulin levels significantly; also recorded: Significant decreases in plasma insulin levels | active in increasing adiponectin production | glucose utilization in intraperitoneal glucose tolerance test compared to vehicle [4]: Significant glucose utilization; activity in the adiponectin assay ([1]; listed as P0017-AC2): exhibited activity in the adiponectin assay |
| CC(=O)Cc1cc(=O)c2c(C)cc(O)c([C@@H]3O[C@H](CO)[C@@H](O)[C@H](O)[C@H]3O)c2o1 [UP394, aloesin] | 2 | – | decreased the insulin levels significantly; also recorded: Significant decreases in plasma insulin levels | active in increasing adiponectin production | inhibition of tyrosinase activity [5]: strong inhibitor; activity in the adiponectin assay ([1]; listed as P0017-AC1): exhibited activity in the adiponectin assay; cleavage of the c-glucosyl bond [6]: can be cleaved |
